Test results as given in ChEMBL document CHEMBL1156829 (Proc Natl Acad Sci U S A, 2008).
pEC50: −log10 of the molar value.

What was measured:
[1] = NOVARTIS: Cytotoxicity against human hepatocellular carcinoma cell line (Huh7); format: toxicity, cell-based, Huh-7; conditions: Huh7 cells (hepatocellular carcinoma cell line)
[2] = tested on: Plasmodium falciparum; experiment: NOVARTIS: Inhibition of Plasmodium falciparum W2 (drug-resistant) proliferation in erythrocyte-based infection assay; format: functional, organism-based; conditions: Plasmodium falciparum, W2; read-out: EC50
[3] = tested on: Plasmodium falciparum; experiment: NOVARTIS: Inhibition of Plasmodium falciparum 3D7 (drug-susceptible) proliferation in erythrocyte-based infection assay; format: functional, organism-based; conditions: Plasmodium falciparum, 3D7

| Compound | CC50 [1] | pEC50 [2] | pEC50 [3] |
| --- | --- | --- | --- |
| COc1ccc(-c2cc(-c3ccccc3)nc(SCC(=O)N3c4ccccc4Sc4ccc(Cl)cc43)c2C#N)cc1 | > 10000 nM | < 5.82 | < 6.37 |
| Cn1c(NN=Cc2ccccc2)cc(=O)n(C)c1=O | > 10000 nM | 6.49 | < 5.90 |
| CC(C)(C)c1ccc(CNC(=O)C(Cc2ccc(O)cc2)c2ccccc2)cc1 (configuration not stated) | 53200 nM | 5.49 | < 5.06 |
| CCN(CC)CCN1C(=O)c2ccc3c4c(ccc(c24)C1=O)C(=O)N(CCN(CC)CC)C3=O | 221 nM | 6.87 | 6.61 |
| Clc1ccc(CNCCCn2ccnc2)cc1Cl | > 10000 nM | < 6.57 | < 5.90 |
| COc1ccc(-c2noc(-c3cccc(I)c3)n2)cc1OC | > 13600 nM | < 6.06 | < 5.76 |
| CCOC(=O)C1=C(C)NC2=C(C(=O)C(C(=O)OC)C(C)C2)C1c1cc(Br)c(OC)c(OCC)c1 (configuration not stated) | > 100000 nM | 7.14 | 6.15 |
| CCC(c1nc2ccccc2c(=O)n1-c1cccc(Cl)c1)N(CCc1ccccc1)C(=O)c1ccc(F)cc1 (configuration not stated) | 656 nM | 7.16 | 6.57 |
| COc1ccccc1N1C(=N)SC(=Cc2ccc(OCc3ccccc3F)cc2)C1=O | > 100000 nM | 5.97 | 6.37 |
| Nc1nonc1-n1nnc(C(=O)NN=Cc2ccc(F)c(Br)c2)c1-c1ccc([N+](=O)[O-])cc1 | > 100000 nM | 6.89 | 6.54 |
| CCCC(=O)NC(c1ccc(Cl)cc1)c1ccc2cccnc2c1O (configuration not stated) | 10300 nM | 6.77 | 6.54 |
| COc1cc(C=CC(=O)Nc2c3c(nn2-c2ccc(F)cc2)CSC3)cc(OC)c1OC | > 100000 nM | 6.42 | 6.04 |
| C/N=C(\N)Nc1nc(C)c2cc(OC)ccc2n1 | > 10000 nM | 6.14 | 6.18 |
| Cc1ccc(CC(=O)Nc2ccc(I)cc2)cc1 | > 100000 nM | < 4.95 | < 4.95 |
| Cc1ccc2[nH]c3c(NCCN(C)C)ncnc3c2c1 | 29600 nM | 6.59 | 6.77 |
| CC(=O)Nc1cccc(NC(=O)C(F)(F)F)c1 | > 10000 nM | < 5.90 | 5.93 |
| COc1cc(-c2nc(-c3cccc(Cl)c3)c(-c3ccccc3)[nH]2)cc(OC)c1O | 43200 nM | 6.13 | 6.23 |

| Compound | CC50 [1] | pEC50 [2] | pEC50 [3] |
| --- | --- | --- | --- |
| CCCc1c(C)nc2ccc(Br)cc2c1O | > 100000 nM | 5.87 | 5.82 |
| NCCCNc1ncc(C(=O)NCc2ccccc2)c(NCC2CCCCC2)n1 | 5140 nM | 6.10 | 7.04 |
| CCCCCN(C(=O)c1ccc(Cl)cc1)C(CC)c1nc2ccccc2c(=O)n1-c1ccccc1OC (configuration not stated) | > 8820 nM | 5.98 | 6.06 |
| CCCNC(=O)c1ccc(OC2CCN(CC3CCCCC3)CC2)c(Cl)c1 | 42400 nM | 6.74 | 6.54 |
| O=[N+]([O-])c1ccc2nc(Nc3ccccc3)c(Nc3ccccc3)nc2c1 | 21700 nM | 6.02 | 6.03 |
| CN1C2CCC1C(=Cc1ccsc1)C(=O)C2=Cc1ccsc1 | > 100000 nM | 6.13 | 6.17 |
| COc1cc(OC)c(Br)c(-n2c(C(C)N(CCC(C)C)C(=O)c3ccccc3C)nc3ccccc3c2=O)c1 (configuration not stated) | > 10000 nM | > 7.47 | < 5.90 |
| CC(C)(C)c1ccc(C(=O)NCCCCNc2ccnc3cc(Cl)ccc23)cc1 | > 10900 nM | 6.64 | 6.75 |
| O=C(CN1CCN(C(=O)c2ccco2)CC1)Nc1cc(C(F)(F)F)ccc1Cl | > 100000 nM | < 5.00 | 5.39 |
| CCn1c2cc(C)sc2c2cnn(CC(=O)Nc3c(C)nn(C)c3C)c(=O)c21 | > 10000 nM | < 5.90 | < 6.13 |
| O=C(Nc1cc(C(F)(F)F)cc(C(F)(F)F)c1)Nc1ccc(Cl)c(Cl)c1 | 6570 nM | 6.03 | 6.09 |
| COC(F)(C(=O)Nc1c(C)n(C)n(-c2ccccc2)c1=O)C(F)(F)F (configuration not stated) | > 9060 nM | < 5.96 | 5.81 |
| COc1ccc(OC)c(-c2ccc(C(=O)N3CCN(C/C=C/c4ccccc4)CC3)c(N(C)C)n2)c1 | > 10000 nM | 6.48 | 6.04 |
| Cc1cccc(CN2CCC(CNC(=S)Nc3ccc4nc(N5CCN(C)CC5)cc(C)c4c3)CC2)c1 | > 100000 nM | 5.17 | < 5.00 |
| CCOC(=O)C1=CN(C)C=C(C(=O)OCC)C1c1cc(Br)c(OCC)c(OC)c1 | > 100000 nM | 6.05 | 6.04 |
| O=C(Nc1ccc(-n2cnnn2)cc1)C1CCN(Cc2ccc(OC(F)F)cc2)CC1 | 46300 nM | 6.57 | 5.80 |
| COc1ccc(-c2ccc3c(N)c(C(=O)NCCc4ccccc4)sc3n2)cc1OC | > 100000 nM | 5.30 | < 4.97 |
